Source: patent publication US11124785B2, “Rothia subtilisins, S8A family proteases, as therapeutic enzymes for application in gluten intolerance disorders” (TRUSTEES OF BOSTON UNIVERSITY, priority 2016, dated 2021)

Legend:
Format in all cases: biochemical
[1] = test system: gliadin-derived FRET substrate QPQLPY; assay: FRET substrate hydrolysis, QPQLPY; details: substrate 100 μM, Rmep 1 μg/ml, pH 8.0, 37° C.
Description: (§1) FIG. 4D and FIG. 4E are representative graphs of the hydrolysis of gliadin-derived FRET substrates. FRET substrates containing QPQLPY (SEQ ID NO: 22), PQPQPQ (SEQ ID NO: 23) and QGSFQP (SEQ ID NO: 24), each at 100 μM, were incubated with Rmep […] and subtilisin A (FIG. 4E), at 1 μg/ml and 0.5 μg/ml, respectively. Controls were boiled Rmep and subtilisin A incubated with PQPQLPY (+) (SEQ ID NO: 25), PQPQPQ (⋄) (SEQ ID NO: 23) and QGSFQP (*) (SEQ ID NO: 24) (no activity, baseline).
(§2) FRET substrate hydrolysis—Three fluorescence resonance energy transfer (FRET) substrates comprising the hexapeptides QPQLPY (SEQ ID NO: 22), PQPQPQ (SEQ ID NO: 23) and QGSFQP (SEQ ID NO: 24) were synthesized with at the N-terminus the HILYTE FLUOR™ 488 label, and at the C-terminus with K(QXL520) (Anaspec, Fremont, Calif.). Rmep (1 μg/ml) and subtilisin A (0.5 μg/ml) were incubated with the substrates (100 μM) in 50 mM TrisHCl pH 8.0. Samples were incubated at 37° C. and fluorescence increase, indicating hydrolysis, was measured every 5 min for 30 min, and every 10 min for the next 30 min, at λex 485 nm and λem 520 nm, using a Genios microtiter plate reader in the kinetic mode.

gliadins = assay: Gliadin degradation control of Example 3 (SDS-PAGE); details: gliadins 500 μg/ml, enzyme 25 μg/ml, pH 8.0
Description: (§3) FIGS. 15A-15F show effective ATI degradation by subtilisins from B. subtilis (nattokinase). […] ATI (500 μg/ml) incubated with Rmep from R. mucilaginosa (FIG. 15A) or nattokinase from B. subtilis (FIG. 15C) at 50, 25, or 10 μg/ml; FIGS. 15B and 15D, Gliadins (500 μg/ml) incubated with Rmep (FIG. 15B) or nattokinase (FIG. 15D) at 25 μg/ml. FIGS. 15E and 15F, ATIs incubated with control heat inactivated enzymes, Rmep (FIG. 15E) or nattokinase (FIG. 15F).
(§4) ATIs were isolated from wheat cultivars as described^3. They were incubated at a final concentration of 500 μg/ml with 10, 25 or 50 μg/ml Rmep (from R. mucilaginosa), or nattokinase (from B. subtilis). The controls incubations were carried out with heat-inactivated Rmep and nattokinase. Experiments were conducted in 50 mM Tris-HCl, pH 8.0. After 0, 15 min, 30 min, 1 h, and 4 h incubation, 20 μl aliquots were removed, mixed with SDS-sample buffer, heated at 85° C. for 5 min and analyzed by 4-12% SDS PAGE. Proteins were visualized with Coomassie Blue staining.

[2] = test system: gliadin-derived FRET substrate QGSFQP; assay: FRET substrate hydrolysis, QGSFQP; details: substrate 100 μM, Rmep 1 μg/ml, pH 8.0
Description: as §1, §2

Suc-AAPF-pNA = assay: pH activity profile of Rmep with Suc-AAPF-pNA; details: Suc-AAPF-pNA 200 μM; citric acid/phosphate buffer mixtures pH 2-12
Description: Activity of Rmep in 0.1M Citric acid/0.2M phosphate buffer mixtures, pH 2-12, was measured with Suc-AAPF-pNA (SEQ ID NO: 4) (200 μM) as the substrate.
Hydrolysis of paranitroanilide-derivatized substrates—Paranitroanilide (pNA)-derivatized tripeptide substrates were chemically synthesized at >90% purity (21st Century Biochemicals, Marlborough, Mass.). The substrates obtained were Z-YPQ-pNA, Z-QQP-pNA, Z-LPY-pNA, Z-PFP-pNA, Z-PPF-pNA, where Z=benzyloxycarbonyl, Y=tyrosine, P=proline, Q=glutamine, L=leucine, and F=phenylalanine Suc-AAPF-pNA (SEQ ID NO: 4) was obtained from Sigma, where Suc=N-succinyl and A=alanine. The peptides were dissolved in 75-100% DMSO at 10 mM, and were used at a final concentration of 200 μM in 50 mM TrisHCl pH 8.0. Purified Rothia enzyme or subtilisin A from Bacillus licheniformis (Sigma) were tested at final concentrations of 1 μg/ml. Some experiments were conducted in the presence of inhibitors 4-(2-Aminoethyl) benzenesulfonyl fluoride (AEBSF), Aprotinin, E-64, EDTA, phenylmethanesulfonyl fluoride (PMSF) and Eglin C, which were tested at final concentrations of 10 mM, 0.08 mM, 0.1 mM, 1.5 mM, 1 mM, and 0.06-1.2 μM, respectively. […] Substrate hydrolysis was monitored for 10 h at 405 nm using a Genios microtiter plate reader (Tecan, Männedorf, Switzerland) in the kinetic mode at 37° C.

wheat ATI proteins = assay: Degradation of amylase-trypsin inhibitors (SDS-PAGE); details: ATIs 500 μg/ml, enzyme 10, 25 or 50 μg/ml, pH 8.0, up to 4 h
Description: as §3, §4

With “Rmep: DEAE pooled fraction F2 of R. mucilaginosa ATCC 25296 extract with highest gluten-degrading enzyme activity; contains subtilisins C6R5V9_9MICC and C6R5W1_9MICC” the “hydrolysis of FRET substrate QPQLPY” value [1] was “rapidly hydrolyzed”, the degradation of gliadins (gliadins) was “degraded” and the “hydrolysis of FRET substrate QGSFQP” value [2] was “not cleaved”. For the same substance, the “pH range over which the enzyme was active” value (Suc-AAPF-pNA) was 6.0-10.0 and the “degradation of wheat ATI proteins” value (wheat ATI proteins) was “resistant to degradation”.
